According to patent US20110038885A1, “CHEMOKINE ANALOGS” (priority 2007, published 2011):
Numbered stars: 1 amine (or outer) side, 2 acyl side, 3 side chain; on linkers, the order of the positions; unused ones are H or OH. Bridge positions count the residues as written; N and C are the ends. Square brackets hold non-standard residues; d marks the D form. Peptide text beside a SMILES is read from it. * marks the point of attachment. Benzoyl(4-Ph) = O=C(c1ccc(-c2ccccc2)cc1)*; Glutaryl = O=C(CCCC(=O)[*:2])[*:1]; 1Naphthoyl = O=C(c1cccc2ccccc12)*; pGlu = O=C1CC[C@@H](C(=O)O)N1; Suc = O=C(CCC(=O)[*:2])[*:1]; hCys = N[C@@H](CCS)C(=O)O; Isobutyryl = CC(C)C(=O)*; Orn = NCCC[C@H](N)C(=O)O; Dap = NC[C@H](N)C(=O)O; Piv = CC(C)(C)C(=O)*; Butyryl = CCCC(=O)*; Bz = O=C(c1ccccc1)*; Ahx = NCCCCCC(=O)O; GABA = NCCCC(=O)O; βAla = NCCC(=O)O

These compounds were tested on MCP-1 (assay: In vitro chemotaxis (trans-well migration) v MCP-1).
Type: cell-based, human
Experimental: To determine whether an agent inhibits a chemokine-induced activity, such as macrophage recruitment, varying amounts of the agent are mixed with cells in the presence of a known chemoattractant. For example, a range of known concentrations of an agent, e.g., a chemokine peptide, is incubated with a defined number (e.g., 10^4-10^6) of human THP-1 monocyte cells in individual wells of the top compartment of a trans-well plate. Chemokine, at a concentration known to cause significant migration of THP-1 cells in the trans-well migration assay, is placed in the lower compartment of a trans-well plate. Cells are then incubated at 37° C. for a period sufficient to allow migration, e.g., 4 hours. After incubation, the cells are gently removed from the top of the filter with a pipette, 20 μl of 20 mM EDTA in simple PBS is added into each top well, and incubated for 20 minutes at 4° C. The filter is carefully flushed with media using a gentle flow, and removed. A standard curve consisting of a two-fold dilution series of THP-1 cells (in 29 μl) is placed to accurately quantify the number of cells that have migrated. Migrated cells are stained with 3 μl of MTT stock dye solution which is added directly into each well (5 mg/ml in RPMI-1640 without phenol red) (Sigma Chemical Co., St. Louis, Mo., USA) and incubated at 37° C. for 4 hours. The media is carefully aspirated from each well, and the converted dye is solubilized by 20 μl of DMSO. Absorbance of converted dye is measured at a wavelength of 595 nm using an ELISA plate reader. The number of migrated cells in each well is then determined by interpolation of the standard curve (see also Imai et al., J. Biol. Chem., 272:15036, 1997). Any method suitable for counting cells can be used, for example, counting with a hemocytometer, incubation of the cells with MTT (see above), or FACS analysis. A negative control assay is also performed, using TGFβ or another non-chemokine chemoattractant (e.g., IL1β or TNFα). To assess whether the agent is cytotoxic, the same concentrations of agent are incubated with THP-1 cells. Agents which 1) are not cytotoxic at levels which inhibit migration, 2) are ineffective at inhibiting the negative control-induced migration, and 3) reduce or inhibit chemokine-induced THP-1 migration, are agents which fall within the scope of the invention.

Going from `CC[C@H](C)[C@@H]1NC(=O)[C@H](Cc2c[nH]c3ccccc23)NC(=O)[C@@H](N)CSSC[C@@H](C(N)=O)NC(=O)[C@H](CCC(N)=O)NC1=O` [Example 2, c(Cys-Trp-Ile-Gln-Cys)-NH2] (H-CWIQC-NH2; disulfide 1-5) to `CC[C@H](C)[C@@H]1NC(=O)[C@H](Cc2c[nH]c3ccccc23)NC(=O)[C@H](CCCCN)NC(=O)CSC[C@@H](C(N)=O)NC(=O)[C@H](CCC(N)=O)NC1=O` [Example 65, c(Ac-Lys-Trp-Ile-Gln-Cys)-NH2] ({CH2CO}-KWIQC-NH2; thioether N-5), the EC50 rises from 7 nM to 30 nM (4.3-fold).

`CC[C@H](C)[C@@H]1NC(=O)[C@H](Cc2c[nH]c3ccccc23)NC(=O)[C@H](CCCCN)NC(=O)[C@@H](NC(=O)[C@@H](CCC(N)=O)NC(C)=O)CSSC[C@@H](C(N)=O)NC(=O)[C@H](CCC(N)=O)NC1=O` [Example 3, Ac-DGln-c(Cys-Lys-Trp-Ile-Gln-Cys)-NH2] (Ac-[dQ]CKWIQC-NH2; disulfide 2-7) and `CC[C@H](C)[C@@H]1NC(=O)[C@H](Cc2c[nH]c3ccccc23)NC(=O)[C@H](CCCCN)NC(=O)[C@@H](NC(=O)C(C)C)CSSC[C@@H](C(N)=O)NC(=O)[C@H](CCC(N)=O)NC1=O` [Example 58, Isobutyryl-c(Cys-Lys-Trp-Ile-Gln-Cys)-NH2] (Isobutyryl-CKWIQC-NH2; disulfide 1-6) are within 1.5-fold of each other in EC50: 6 nM for the first, 8 nM for the second.

`CC[C@H](C)[C@@H]1NC(=O)[C@H](Cc2c[nH]c3ccccc23)NC(=O)[C@H](CCCCN)NC(=O)CSCC[C@@H](C(N)=O)NC(=O)[C@H](CCC(N)=O)NC1=O` [Example 4, (Ac=Lys=Trp=Ile=Gln=hCyc)=NH2] ({CH2CO}-KWIQ[hCys]-NH2; thioether N-5) and `CC[C@H](C)[C@@H]1NC(=O)[C@H](Cc2c[nH]c3ccccc23)NC(=O)[C@H](CCCCN)NC(=O)CCCNC(=O)CC[C@@H](C(N)=O)NC(=O)[C@H](CCC(N)=O)NC1=O` [Example 61, c(Gaba-Lys-Trp-Ile-Gln-Glu)-NH2] ([GABA]KWIQE-NH2; lactam N-6) are within 1.5-fold of each other in EC50: 20 nM for the first, 25 nM for the second.

Going from `CC[C@H](C)[C@@H]1NC(=O)[C@H](Cc2c[nH]c3ccccc23)NC(=O)[C@H](CCCCN)NC(=O)CCCCCNC(=O)C[C@@H](C(N)=O)NC(=O)[C@H](CCC(N)=O)NC1=O` [Example 5, c(Ahx-Lys-Trp-Ile-Gln-Asp)-NH2] ([Ahx]KWIQD-NH2; lactam N-6) to `CC[C@H](C)[C@@H]1NC(=O)[C@H](Cc2c[nH]c3ccccc23)NC(=O)[C@H](CCCCN)NC(=O)CCCNC(=O)C[C@@H](C(N)=O)NC(=O)[C@H](CCC(N)=O)NC1=O` [Example 60, c(Gaba-Lys-Trp-Ile-Gln-Asp)-NH2] ([GABA]KWIQD-NH2; lactam N-6), the EC50 rises from 5 nM to 30 nM (6-fold). The first is the more potent here.

`CC[C@H](C)[C@@H]1NC(=O)[C@H](Cc2c[nH]c3ccccc23)NC(=O)[C@H](CCCCN)NC(=O)[C@@H](NC(=O)C(C)C)CC(=O)NC[C@@H](C(N)=O)NC(=O)[C@H](CCC(N)=O)NC1=O` [Example 6, Isobutyryl-c(Asp-Lys-Trp-Ile-Gln-Dap)-NH2] (Isobutyryl-DKWIQ[Dap]-NH2; lactam 1-6) and `CC[C@H](C)[C@@H]1NC(=O)[C@H](Cc2c[nH]c3ccccc23)NC(=O)[C@H](CCCCN)NC(=O)[C@@H](NC(=O)C(C)C)CNC(=O)CC[C@@H](C(N)=O)NC(=O)[C@H](CCC(N)=O)NC1=O` [Example 7, Isobutyryl-c(Dap-Lys-Trp-Ile-Gln-Glu)-NH2] (Isobutyryl-[Dap]KWIQE-NH2; lactam 1-6) are the same in EC50: 5 nM for the first, 5 nM for the second.

Compared with `CC[C@H](C)[C@@H]1NC(=O)[C@H](Cc2c[nH]c3ccccc23)NC(=O)[C@H](CCCCN)NC(=O)CCCC(=O)NCCC[C@@H](C(N)=O)NC(=O)[C@H](CCC(N)=O)NC1=O` [Example 8, c(Glutaryl-Lys-Trp-Ile-Gln-Orn)-NH2] (KWIQ[Orn]-NH2; linker N-5 via Glutaryl), `CC[C@H](C)[C@@H]1NC(=O)[C@H](Cc2c[nH]c3ccccc23)NC(=O)[C@H](CCCCN)NC(=O)CCC(=O)NCCC[C@@H](C(N)=O)NC(=O)[C@H](CCC(N)=O)NC1=O` [Example 62, c(Succinyl-Lys-Trp-Ile-Gln-Orn)-NH2] (KWIQ[Orn]-NH2; linker N-5 via Suc) is 13-fold higher in EC50: 5 nM for the first, 66 nM for the second. The first is the more potent here.

`CC[C@H](C)[C@@H]1NC(=O)[C@H](Cc2c[nH]c3ccccc23)NC(=O)[C@H](CCCCN)NC(=O)[C@@H](NC(=O)[C@@H]2CCC(=O)N2)CSSC[C@@H](C(N)=O)NC(=O)[C@H](CCC(N)=O)NC1=O` [Example 52, pGlu-c(Cys-Lys-Trp-Ile-Gln-Cys)-NH2] ([pGlu]CKWIQC-NH2; disulfide 2-7) and `CCCC(=O)N[C@H]1CSSC[C@@H](C(N)=O)NC(=O)[C@H](CCC(N)=O)NC(=O)[C@H]([C@@H](C)CC)NC(=O)[C@H](Cc2c[nH]c3ccccc23)NC(=O)[C@H](CCCCN)NC1=O` [Example 56, nButyryl-c(Cys-Lys-Trp-Ile-Gln-Cys)-NH2] (Butyryl-CKWIQC-NH2; disulfide 1-6) are the same in EC50: 25 nM for the first, 25 nM for the second.

First: CC[C@H](C)[C@@H]1NC(=O)[C@H](Cc2c[nH]c3ccccc23)NC(=O)[C@H](CCCCN)NC(=O)[C@@H](NC(=O)c2ccccc2)CSSC[C@@H](C(N)=O)NC(=O)[C@H](CCC(N)=O)NC1=O [Example 57, Benzoyl-c(Cys-Lys-Trp-Ile-Gln-Cys)-NH2] (Bz-CKWIQC-NH2; disulfide 1-6)
Second: CC[C@H](C)[C@@H]1NC(=O)[C@H](Cc2c[nH]c3ccccc23)NC(=O)[C@H](CCCCN)NC(=O)[C@@H](NC(=O)c2ccc(-c3ccccc3)cc2)CSSC[C@@H](C(N)=O)NC(=O)[C@H](CCC(N)=O)NC1=O [Example 67, 4-Biphenylcarboxyl-c(Cys-Lys-Trp-Ile-Gln-Cys)-NH2] ({Benzoyl(4-Ph)}-CKWIQC-NH2; disulfide 1-6)
The EC50 of the first is 1.9-fold higher: 15 nM for the first, 8 nM for the second.

First: NCCCC[C@@H]1NC(=O)CCNC(=O)C[C@@H](C(N)=O)NC(=O)[C@H](CCC(N)=O)NC(=O)[C@H](Cc2c[nH]c3ccccc23)NC1=O [Example 59, c((βA1a-Lys-Trp-Gln-Asp)-NH2] ([βAla]KWQD-NH2; lactam N-5)
Second: CC[C@H](C)[C@@H]1NC(=O)[C@H](Cc2c[nH]c3ccccc23)NC(=O)[C@H](CCCCN)NC(=O)CCC(=O)NCCCC[C@@H](C(N)=O)NC(=O)[C@H](CCC(N)=O)NC1=O [Example 63, c(Succinyl-Lys-Trp-Ile-Gln-Lys)-NH2] (KWIQK-NH2; linker N-5 via Suc)
The EC50 of the first is 2.6-fold lower: 25 nM for the first, 66 nM for the second.

Going from `CC[C@H](C)[C@@H]1NC(=O)[C@H](Cc2c[nH]c3ccccc23)NC(=O)[C@H](CCCCN)NC(=O)[C@@H](NC(C)=O)CC(=O)NCCCC[C@@H](C(N)=O)NC(=O)[C@H](CCC(N)=O)NC1=O` [Example 64, Ac-c(Asp-Lys-Trp-Ile-Gln-Lys)-NH2] (Ac-DKWIQK-NH2; lactam 1-6) to `CC[C@H](C)[C@@H]1NC(=O)[C@H](Cc2c[nH]c3ccccc23)NC(=O)[C@H](CCCCN)NC(=O)[C@@H](NC(=O)C(C)(C)C)CSSC[C@@H](C(N)=O)NC(=O)[C@H](CCC(N)=O)NC1=O` [Example 66, Trimethylacetyl-c(Cys-Lys-Trp-Ile-Gln-Cys)-NH2] (Piv-CKWIQC-NH2; disulfide 1-6), the EC50 falls from 20 nM to 10 nM (2-fold). The second is the more potent here.

With `CC[C@H](C)[C@@H]1NC(=O)[C@H](Cc2c[nH]c3ccccc23)NC(=O)[C@H](CCCCN)NC(=O)[C@@H](NC(=O)c2cccc3ccccc23)CSSC[C@@H](C(N)=O)NC(=O)[C@H](CCC(N)=O)NC1=O` [Example 68, 1-Naphthoyl-c(Cys-Lys-Trp-Ile-Gln-Cys)-NH2] (1Naphthoyl-CKWIQC-NH2; disulfide 1-6) the EC50 was 30 nM.
